Experimental data published in US3985884A, “Complement inhibitors” (American Cyanamid Company, priority 1975, dated 1976).
Structures can show the parent of a compound that is named as a salt.

Tested on: complement level
Assay: Complement Level Reduction Test
Assay type: in vivo
Conditions: serum of dosed guinea pigs, undiluted serum capillary tube method, compared to undosed controls

## O=C(Nc1ccc(-n2nc3ccc4cc(S(=O)(=O)O)cc(O)c4c3n2)c(S(=O)(=O)O)c1)Nc1ccc(-n2nc3ccc4cc(S(=O)(=O)O)cc(O)c4c3n2)c(S(=O)(=O)O)c1 [3,3'-Ureylenebis[6-(9-hydroxy-7-sulfo-2H-naphtho[1,2-d]triazol-2-yl)benzenesulfonic acid] tetrasodium salt]
  % Reduction Complement, In Vivo: 42%
